# ChEMBL document CHEMBL1152704, “Synthesis and structure-function analysis of Fe(II)-form-selective antibacterial inhibitors of Escherichia coli methionine aminopeptidase” (Bioorg Med Chem Lett, 2009)
# Assays:
# Escherichia coli = test: Antibacterial activity against Escherichia coli AS19; format: functional, organism-based
# [1] = Inhibition of ferrous-activated Escherichia coli MetAP
# [2] = Inhibition of mangnese-activated Escherichia coli MetAP
# [3] = Inhibition of cobalt-activated Escherichia coli MetAP
Compound,IC50 (Escherichia coli) [µM],MIC (Escherichia coli) [µg/mL],IC50 [1] [µM],IC50 [2] [µM],IC50 [3] [µM]
O=C(NC1CCCC1)c1ncoc1-c1cccc(O)c1O,165,199,11,> 100,> 100
C=CCCNC(=O)c1ncoc1-c1cccc(O)c1O,97.2,99,13.4,> 100,> 100
C=CCCNC(=O)c1ccc(-c2ccc(O)c(O)c2)o1,50.8,39,1,6.7,21.2
COC(=O)c1ncoc1-c1cccc(O)c1O,120,99,14,> 100,> 100
COc1cnc(-c2cccc(O)c2O)o1,228,164,11.2,> 100,> 100
O=C(NC1CC1)c1ccc(-c2ccc(O)c(O)c2)o1,55,26,14.8,> 100,> 100

# Results, then the compound that gave them:
IC50 (Escherichia coli) [µM],MIC (Escherichia coli) [µg/mL],IC50 [1] [µM],IC50 [2] [µM],IC50 [3] [µM],Compound
206,80,10.6,> 100,52.6,Oc1ccc(-c2ncc(F)cn2)cc1O
211,106,19.3,> 100,> 100,Oc1ccc(-c2ccccn2)cc1O
97.7,79,16.1,19.5,24.6,Oc1ccc(-c2cn(Cc3ccccc3)nn2)cc1O
43.9,29,1.2,7.9,22.5,O=C(NC1CCC1)c1ccc(-c2ccc(O)c(O)c2)o1
23.4,19,0.9,11.8,30.1,O=C(NC1CCCC1)c1ccc(-c2ccc(O)c(O)c2)o1
> 250,,25.5,> 100,> 100,Oc1ccc(-c2ncccn2)cc1O
> 250,,> 100,> 100,> 100,Cn1ccnc1-c1ccc(O)c(O)c1
